Read-outs that look alike come from different tables or passages of the source. Values belong to the molecule of their own block, whether it stands above or below them.
What was measured:
[1] = target: T1, progesterone receptor (PR) (Homo sapiens, UniProt P06401); assay: Progesterone receptor; type: cell-based
T1 sequence (P06401 1-933): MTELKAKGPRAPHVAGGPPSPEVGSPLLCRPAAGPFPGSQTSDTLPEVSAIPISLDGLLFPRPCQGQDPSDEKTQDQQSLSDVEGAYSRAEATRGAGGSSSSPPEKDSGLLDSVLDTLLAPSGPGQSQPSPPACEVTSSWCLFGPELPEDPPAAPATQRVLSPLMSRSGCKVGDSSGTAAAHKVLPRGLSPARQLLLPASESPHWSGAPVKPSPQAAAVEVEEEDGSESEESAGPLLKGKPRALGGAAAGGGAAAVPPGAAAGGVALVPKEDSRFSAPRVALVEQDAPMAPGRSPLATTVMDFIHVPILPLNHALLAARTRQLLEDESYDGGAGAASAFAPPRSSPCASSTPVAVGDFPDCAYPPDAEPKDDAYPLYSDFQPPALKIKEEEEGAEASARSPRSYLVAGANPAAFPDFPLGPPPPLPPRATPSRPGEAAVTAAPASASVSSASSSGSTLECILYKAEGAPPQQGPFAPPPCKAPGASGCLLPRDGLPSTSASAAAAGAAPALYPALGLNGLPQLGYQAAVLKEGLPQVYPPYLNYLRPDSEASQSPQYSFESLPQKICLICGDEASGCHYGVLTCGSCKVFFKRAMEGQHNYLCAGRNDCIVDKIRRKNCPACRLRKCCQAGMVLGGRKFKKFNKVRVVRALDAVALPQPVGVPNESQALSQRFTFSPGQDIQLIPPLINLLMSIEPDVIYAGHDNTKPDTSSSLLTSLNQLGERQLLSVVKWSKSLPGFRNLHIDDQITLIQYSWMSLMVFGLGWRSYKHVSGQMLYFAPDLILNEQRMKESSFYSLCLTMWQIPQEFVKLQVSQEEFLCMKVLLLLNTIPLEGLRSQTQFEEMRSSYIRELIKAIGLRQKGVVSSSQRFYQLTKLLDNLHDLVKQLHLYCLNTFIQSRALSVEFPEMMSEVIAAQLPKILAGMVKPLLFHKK

[2] = test system: human liver microsomes (HLM); assay: Oxidation-glucuronidation assay with HLMs; type: in vitro ADME
[3] = target: T2, glucocorticoid receptor (GR) (Homo sapiens, UniProt P04150); assay: Glucocorticoid receptor; type: cell-based
T2 sequence (P04150 1-777): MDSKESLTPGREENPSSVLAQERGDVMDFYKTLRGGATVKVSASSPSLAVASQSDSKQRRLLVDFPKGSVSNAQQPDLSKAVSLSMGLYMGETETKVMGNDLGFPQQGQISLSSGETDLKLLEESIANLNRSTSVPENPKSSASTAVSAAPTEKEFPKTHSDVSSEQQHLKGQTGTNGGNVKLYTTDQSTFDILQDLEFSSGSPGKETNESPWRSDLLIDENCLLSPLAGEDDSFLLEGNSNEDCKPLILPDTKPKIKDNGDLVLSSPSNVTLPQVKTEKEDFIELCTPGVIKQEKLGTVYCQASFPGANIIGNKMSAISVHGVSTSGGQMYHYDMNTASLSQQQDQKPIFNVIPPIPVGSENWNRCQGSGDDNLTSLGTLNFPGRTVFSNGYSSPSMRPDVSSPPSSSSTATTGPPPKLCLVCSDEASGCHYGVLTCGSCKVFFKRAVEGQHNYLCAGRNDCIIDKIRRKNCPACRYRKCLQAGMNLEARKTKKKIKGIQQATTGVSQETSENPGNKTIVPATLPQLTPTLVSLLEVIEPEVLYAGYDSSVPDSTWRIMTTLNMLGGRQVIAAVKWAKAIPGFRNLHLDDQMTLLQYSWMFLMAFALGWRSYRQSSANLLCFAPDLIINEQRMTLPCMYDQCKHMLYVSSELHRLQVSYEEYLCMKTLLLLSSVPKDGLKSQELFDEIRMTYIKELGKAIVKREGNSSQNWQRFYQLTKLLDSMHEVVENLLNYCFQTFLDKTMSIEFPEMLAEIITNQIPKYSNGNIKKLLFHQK

[4] = T47D cells, 8 h, 10 nM, versus ethanol

SMILES: CO[C@H]1C[C@H](O[C@H]2[C@H](C)[C@@H](O[C@@H]3O[C@H](C)C[C@H](N(C)C)[C@H]3OC(C)=O)[C@@H](C)C[C@@]3(CO3)C(=O)[C@H](C)[C@@H](OC(C)=O)[C@@H](C)[C@@H](C)OC(=O)[C@@H]2C)O[C@@H](C)[C@@H]1OC(C)=O [troleandomycin]
inhibition of M1 (HLMs; 28 μM MA, troleandomycin 50 μM): 93.2%
inhibition of M2 (HLMs; 28 μM MA, troleandomycin 50 μM): 100%
inhibition of M1 (HLMs; 62 μM MA, troleandomycin 50 μM): 94.4%
inhibition of M2 (HLMs; 62 μM MA, troleandomycin 50 μM): 100%

pharmacologic activity on the PR ([1]; in words): significant pharmacologic activity
glucuronide formation by HLM ([2]; UDPGA alone (data not shown)): does not form any glucuronides
glucuronide formation by HLM ([2]; co-incubation with both NADPH and UDPGA, 24 hrs): two glucuronides were detected
activity on the GR ([3]; in words): showed activity
SMILES: CC(=O)O[C@]1(C(C)=O)CC[C@H]2[C@@H]3C=C(C)C4=CC(=O)CC[C@]4(C)[C@H]3CC[C@@]21C [MA, Megestrol acetate]

SMILES: CC(=O)N1CCN(c2ccc(OCC3COC(Cn4ccnc4)(c4ccc(Cl)cc4Cl)O3)cc2)CC1 (centres unmarked) [ketoconazole]
inhibition of M1 (HLMs; 28 μM MA, ketoconazole 1 μM): 96.2%
inhibition of M2 (HLMs; 28 μM MA, ketoconazole 1 μM): 100%
inhibition of M1 (HLMs; 62 μM MA, ketoconazole 1 μM): 100%
inhibition of M2 (HLMs; 62 μM MA, ketoconazole 1 μM): 100%

SMILES: C[C@@H]1C[C@H]2[C@@H]3CCC4=CC(=O)C=C[C@]4(C)[C@@]3(F)[C@@H](O)C[C@]2(C)[C@@]1(O)C(=O)CO [Dexamethasone, dexamethasone]
average mRNA fold change GILZ ([3]; MDA-MB-231 cells, 4 h, 0.1 μM): 18.5 fold change
average mRNA fold change SGK1 ([3]; MDA-MB-231 cells, 4 h, 0.1 μM): 5.6 fold change

average mRNA fold change E2F1 [1, 4]: 4.8 ± 0.4 fold change
average mRNA fold change FKBP5 [1, 4]: 9.5 ± 0.3 fold change
average mRNA fold change GREB1 [1, 4]: 2.2 ± 0.1 fold change
SMILES: CCC(=O)[C@@]1(C)CC[C@H]2[C@@H]3CCC4=CC(=O)CCC4=C3CC[C@@]21C [Metabolite R5020]

— PMC6129397 (Xenobiotica; the fate of foreign compounds in biological …, 2017)
